Measurements reported in patent publication US20260008818A1, “CYCLIC PEPTIDE OR SALT THEREOF, AND USES THEREOF” (FUJIFILM Corporation, priority 2023, published 2026).
Bridge positions count the residues as written; N and C are the ends. Ends that are not written are not given here. COCH2 = acetyl group that carries the bridge

System: Recombinant Human FGFR1 alpha (IIIc) Fc Chimera Protein
Experiment: Binding affinity of enzymatically synthesized cyclic peptide to FGFR by ELISA
Conditions: luminescence signal at reaction concentration 10 nmol/L, SEQ ID NO: 39 standardized to 1, enzyme synthesis product
Summary of the method: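 Graded A–D from luminescence at 10 nmol/L peptide, expressed relative to SEQ ID NO: 39 after subtracting wells lacking receptor. Read-out used anti-Myc antibody (2 h, RT) with chemiluminescent substrate, following 3 h RT binding of peptide to immobilized FGFR1α(IIIc)-Fc, 5 ng per well.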

Row | Evaluation result of binding affinity to FGFR | Substance
1 | A (0.7 or more) | 300 (HCSYERMQFHGHEAPFRVK(COCH2)V; thioether 2-19 (inferred)) [compound 300]
2 | C (0.1 or more and less than 0.5) | 304 (HCSYERLQFHMHEAPFRVK(COCH2)V; thioether 2-19 (inferred)) [compound 304]
3 | A (0.7 or more) | 305 (HCSYERLQFHGHMAPFRVK(COCH2)V; thioether 2-19 (inferred)) [compound 305]
4 | C (0.1 or more and less than 0.5) | 306 (HCSYERLQFHGHEAMFRVK(COCH2)V; thioether 2-19 (inferred)) [compound 306]
5 | A (0.7 or more) | 307 (HCSYERLQFHGHEAPFMVK(COCH2)V; thioether 2-19 (inferred)) [compound 307]
6 | C (0.1 or more and less than 0.5) | 310 (YCTWERLIFLGHIAPFWVK(COCH2)R; thioether 2-19 (inferred)) [compound 310]
7 | C (0.1 or more and less than 0.5) | 312 (HCVWERLIFLGHIAPFWVK(COCH2)R; thioether 2-19 (inferred)) [compound 312]
8 | C (0.1 or more and less than 0.5) | 313 (HCQWERLIFLGHIAPFWVK(COCH2)R; thioether 2-19 (inferred)) [compound 313]
9 | C (0.1 or more and less than 0.5) | 316 (HCTWERLVFLGHIAPFWVK(COCH2)R; thioether 2-19 (inferred)) [compound 316]
10 | C (0.1 or more and less than 0.5) | 317 (HCTWERLRFLGHIAPFWVK(COCH2)R; thioether 2-19 (inferred)) [compound 317]
11 | C (0.1 or more and less than 0.5) | 318 (HCTWERLIFRGHIAPFWVK(COCH2)R; thioether 2-19 (inferred)) [compound 318]
12 | C (0.1 or more and less than 0.5) | 322 (HCTWERLIFLGHIAPFLVK(COCH2)R; thioether 2-19 (inferred)) [compound 322]
13 | B (0.5 or more and less than 0.7) | 324 (HCTWERLIFLGHIAPFWVK(COCH2)V; thioether 2-19 (inferred)) [compound 324]
14 | A (0.7 or more) | 326 (HCSYERLQFHGHIAPFWVK(COCH2)V; thioether 2-19 (inferred)) [compound 326]
15 | A (0.7 or more) | 327 (HCSYERLIFHGHEAPFWVK(COCH2)V; thioether 2-19 (inferred)) [compound 327]
16 | A (0.7 or more) | 329 (HCSYERLRFHGHIAPFWVK(COCH2)V; thioether 2-19 (inferred)) [compound 329]
17 | B (0.5 or more and less than 0.7) | 334 (HCSYERLIFLGHIAPFWVK(COCH2)V; thioether 2-19 (inferred)) [compound 334]
18 | A (0.7 or more) | 335 (HCSYERLIFRGHIAPFWVK(COCH2)V; thioether 2-19 (inferred)) [compound 335]
19 | B (0.5 or more and less than 0.7) | 336 (HCTYERLIFLGHIAPFWVK(COCH2)V; thioether 2-19 (inferred)) [compound 336]
20 | C (0.1 or more and less than 0.5) | 338 (PCLAPYGWVILDWGLVSNWK(COCH2)Y; thioether 2-20 (inferred)) [compound 338]
21 | C (0.1 or more and less than 0.5) | 339 (YCITQHPWAPFWVVNPWDNK(COCH2)L; thioether 2-20 (inferred)) [compound 339]
22 | C (0.1 or more and less than 0.5) | 340 (HCLVKRLVSAWGELAPFWVK(COCH2)V; thioether 2-20) [compound 340]
23 | C (0.1 or more and less than 0.5) | 342 (NCIPFWWQQHWWQYPVRVVK(COCH2)T; thioether 2-20) [compound 342]
24 | C (0.1 or more and less than 0.5) | 344 (RCQPFVQLVFRSLLAPFLVK(COCH2)H; thioether 2-20) [compound 344]
25 | C (0.1 or more and less than 0.5) | 345 (QCYLPFWFYQKARLLFHYIK(COCH2)S; thioether 2-20) [compound 345]
26 | B (0.5 or more and less than 0.7) | 347 (PCVQQISPHPWGAPFWVVTSK(COCH2)F; thioether 2-21) [compound 347]
27 | C (0.1 or more and less than 0.5) | 349 (HCLEQLVYGGDTAPFWIVVFK(COCH2)D; thioether 2-21) [compound 349]
28 | C (0.1 or more and less than 0.5) | 351 (WCWQAPFNIVVNRKVSVLIVK(COCH2)G; thioether 2-21) [compound 351]
29 | B (0.5 or more and less than 0.7) | 352 (ICINRLSQGTHFAPFWLVEYK(COCH2)N; thioether 2-21) [compound 352]
30 | B (0.5 or more and less than 0.7) | 356 (ACWLRHIYQGHKAPFLIWSTK(COCH2)S; thioether 2-21) [compound 356]

Continued, substance first:

Row | Substance | Evaluation result of binding affinity to FGFR
31 | 301 (HCSYERLMFHGHEAPFRVK(COCH2)V; thioether 2-19 (inferred)) [compound 301] | A (0.7 or more)
32 | 302 (HCSYERLQMHGHEAPFRVK(COCH2)V; thioether 2-19 (inferred)) [compound 302] | B (0.5 or more and less than 0.7)
33 | 303 (HCSYERLQFMGHEAPFRVK(COCH2)V; thioether 2-19 (inferred)) [compound 303] | A (0.7 or more)
34 | 308 (HCSYERLQFHGHEAPFRMK(COCH2)V; thioether 2-19 (inferred)) [compound 308] | C (0.1 or more and less than 0.5)
35 | 309 (HCSYERLQFHGHEAPFRVK(COCH2)M; thioether 2-19 (inferred)) [compound 309] | A (0.7 or more)
36 | 311 (RCTWERLIFLGHIAPFWVK(COCH2)R; thioether 2-19 (inferred)) [compound 311] | C (0.1 or more and less than 0.5)
37 | 314 (HCTFERLIFLGHIAPFWVK(COCH2)R; thioether 2-19 (inferred)) [compound 314] | C (0.1 or more and less than 0.5)
38 | 315 (HCTYERLIFLGHIAPFWVK(COCH2)R; thioether 2-19 (inferred)) [compound 315] | C (0.1 or more and less than 0.5)
39 | 319 (HCTWERLIFQGHIAPFWVK(COCH2)R; thioether 2-19 (inferred)) [compound 319] | C (0.1 or more and less than 0.5)
40 | 320 (HCTWERLIFLGHLAPFWVK(COCH2)R; thioether 2-19 (inferred)) [compound 320] | C (0.1 or more and less than 0.5)
41 | 321 (HCTWERLIFLGHVAPFWVK(COCH2)R; thioether 2-19 (inferred)) [compound 321] | C (0.1 or more and less than 0.5)
42 | 323 (HCTWERLIFLGHIAPFHVK(COCH2)R; thioether 2-19 (inferred)) [compound 323] | A (0.7 or more)
43 | 325 (HCTWERLIFLGHIAPFWVK(COCH2)S; thioether 2-19 (inferred)) [compound 325] | B (0.5 or more and less than 0.7)
44 | 328 (HCSYERLIFHGHIAPFWVK(COCH2)V; thioether 2-19 (inferred)) [compound 328] | A (0.7 or more)
45 | 330 (HCSYERLVFHGHIAPFWVK(COCH2)V; thioether 2-19 (inferred)) [compound 330] | A (0.7 or more)
46 | 331 (HCSYERLIFHGHLAPFWVK(COCH2)V; thioether 2-19 (inferred)) [compound 331] | A (0.7 or more)
47 | 332 (HCTYERLIFHGHIAPFWVK(COCH2)V; thioether 2-19 (inferred)) [compound 332] | A (0.7 or more)
48 | 333 (HCVYERLIFHGHIAPFWVK(COCH2)V; thioether 2-19 (inferred)) [compound 333] | A (0.7 or more)
49 | 337 (ACLPFLRIIIAGHWAPFLAK(COCH2)Q; thioether 2-20 (inferred)) [compound 337] | C (0.1 or more and less than 0.5)
50 | 341 (ACLPFLRIIIAGHWAPFLAK(COCH2)H; thioether 2-20) [compound 341] | C (0.1 or more and less than 0.5)
51 | 343 (QCWQQAYAYFPHVLAPFLVK(COCH2)S; thioether 2-20) [compound 343] | C (0.1 or more and less than 0.5)
52 | 346 (ACWLRHIYQGHQAPFLIWSTK(COCH2)S; thioether 2-21) [compound 346] | C (0.1 or more and less than 0.5)
53 | 348 (PCTGWTPLYFFGKRAPFLVNK(COCH2)A; thioether 2-21) [compound 348] | C (0.1 or more and less than 0.5)
54 | 350 (LCSITRIQLFGYHAPFWHVVK(COCH2)S; thioether 2-21) [compound 350] | C (0.1 or more and less than 0.5)
55 | 353 (PCVQQISPHPWGAPFWVVTSK(COCH2)Y; thioether 2-21) [compound 353] | B (0.5 or more and less than 0.7)
56 | 355 (RCYFSRQGFWPFTYKLPFWVK(COCH2)H; thioether 2-21) [compound 355] | C (0.1 or more and less than 0.5)
57 | 357 (ACWLRHIYQGHQAPFLIWSTK(COCH2)Y; thioether 2-21) [compound 357] | C (0.1 or more and less than 0.5)
